# Experimental data reported in article PMC11249646, “Small-Molecule Disruptors of the Interaction between Calcium- and Integrin-Binding Protein 1 and Integrin αIIbβ3 as Novel Antiplatelet Agents” (ACS Pharmacology & Translational Science, 2024).
# Target: T1, CIB1 and αIIb interaction (CIB1-GST : F-αIIb peptide) (Homo sapiens, UniProt Q99828)
# T1 construct: made in house; host or cells: BL-21 plus RIL cells (E. coli)
# T1 sequence (Q99828 1-191): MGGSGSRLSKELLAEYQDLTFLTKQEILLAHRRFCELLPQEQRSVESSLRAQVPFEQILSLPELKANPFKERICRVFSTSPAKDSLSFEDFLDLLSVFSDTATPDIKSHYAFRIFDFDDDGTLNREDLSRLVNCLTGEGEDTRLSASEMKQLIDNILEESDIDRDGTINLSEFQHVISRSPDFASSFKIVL
# Test: FP assay, 1536-well qHTS format (primary and confirmatory screen)
# Type: binding
# Conditions: confirmatory screen
row,SMILES,Efficacy (%) (confirmatory screen)
1,CCOC(=O)c1[nH]c2c(c1C)C(=S)CC(c1ccco1)C2.O=C(O)C(F)(F)F (stereo not drawn) [NCGC00238571-01],-73
2,CCOC(=O)c1ccc(O)c2ncc(N3CCC(C(=N)N)CC3)cc12.O=C(O)C(F)(F)F [NCGC00241051-01],-129
3,CC1(C)OB(c2ccc(O)c3ncc(N4CCNCC4)cc23)OC1(C)C.O=C(O)C(F)(F)F [NCGC00241053-01],-132
4,COc1cc(Nc2c(C#N)cnc3cc(OCCCN4CCN(C)CC4)c(OC)cc23)c(Cl)cc1Cl [NCGC00241107-05],-73

# Same assay, conditions: confirmatory screen, YES/NO
row,SMILES,Confirm? (confirmatory screen)
1,CCOC(=O)c1[nH]c2c(c1C)C(=S)CC(c1ccco1)C2.O=C(O)C(F)(F)F (stereo not drawn) [NCGC00238571-01],YES
2,CCOC(=O)c1ccc(O)c2ncc(N3CCC(C(=N)N)CC3)cc12.O=C(O)C(F)(F)F [NCGC00241051-01],YES
3,CC1(C)OB(c2ccc(O)c3ncc(N4CCNCC4)cc23)OC1(C)C.O=C(O)C(F)(F)F [NCGC00241053-01],YES
4,COc1cc(Nc2c(C#N)cnc3cc(OCCCN4CCN(C)CC4)c(OC)cc23)c(Cl)cc1Cl [NCGC00241107-05],YES

# Same assay, conditions: confirmatory screen, YES/NO call
row,SMILES,CONFIRMATORY SCREEN Confirm?
1,CC(C)NC(=S)N/N=C1\C(=O)Nc2ccccc21.O=C(O)C(F)(F)F [NCGC00229535-01],YES

# Same assay, conditions: confirmatory screen, qHTS curve class; negative sign = inhibitory curve
SMILES,CONFIRMATORY SCREEN Curve Class,Curve Class (confirmatory screen)
CC(C)NC(=S)N/N=C1\C(=O)Nc2ccccc21.O=C(O)C(F)(F)F [NCGC00229535-01],-1.4,
CCOC(=O)c1[nH]c2c(c1C)C(=S)CC(c1ccco1)C2.O=C(O)C(F)(F)F (stereo not drawn) [NCGC00238571-01],,-1.2
CCOC(=O)c1ccc(O)c2ncc(N3CCC(C(=N)N)CC3)cc12.O=C(O)C(F)(F)F [NCGC00241051-01],,-1.1
CC1(C)OB(c2ccc(O)c3ncc(N4CCNCC4)cc23)OC1(C)C.O=C(O)C(F)(F)F [NCGC00241053-01],,-2.1
COc1cc(Nc2c(C#N)cnc3cc(OCCCN4CCN(C)CC4)c(OC)cc23)c(Cl)cc1Cl [NCGC00241107-05],,-2.2

# Same assay, conditions: confirmatory screen; negative = inhibition
row,SMILES,CONFIRMATORY SCREEN Efficacy (%)
1,CC(C)NC(=S)N/N=C1\C(=O)Nc2ccccc21.O=C(O)C(F)(F)F [NCGC00229535-01],-48

# Same assay, conditions: confirmatory screen; read-out: CONFIRMATORY SCREEN IC50
row,SMILES,IC50 [µM]
1,CC(C)NC(=S)N/N=C1\C(=O)Nc2ccccc21.O=C(O)C(F)(F)F [NCGC00229535-01],2.8

# Same assay, conditions: confirmatory screen; read-out: IC50 [μM] (confirmatory screen)
row,SMILES,IC50 [µM]
1,CCOC(=O)c1[nH]c2c(c1C)C(=S)CC(c1ccco1)C2.O=C(O)C(F)(F)F (stereo not drawn) [NCGC00238571-01],35.5
2,CC1(C)OB(c2ccc(O)c3ncc(N4CCNCC4)cc23)OC1(C)C.O=C(O)C(F)(F)F [NCGC00241053-01],31.6
3,COc1cc(Nc2c(C#N)cnc3cc(OCCCN4CCN(C)CC4)c(OC)cc23)c(Cl)cc1Cl [NCGC00241107-05],44.7

# Same assay, conditions: qHTS FP screen hits, Table S2; negative = inhibition
row,SMILES,Efficacy (%)
1,CC(C)NC(=S)N/N=C1\C(=O)Nc2ccccc21.O=C(O)C(F)(F)F [NCGC00229535-01],-24
2,COc1cc(Nc2c(C#N)cnc3cc(OCCCN4CCN(C)CC4)c(OC)cc23)c(Cl)cc1Cl [NCGC00241107-05],-33

# Same assay, conditions: qHTS FP screen hits, Table S2; one class per curve where COUNT > 1; negative sign = inhibitory curve
row,Curve Class,SMILES
1,-2.2,COc1cc(Nc2c(C#N)cnc3cc(OCCCN4CCN(C)CC4)c(OC)cc23)c(Cl)cc1Cl [NCGC00241107-05]

# Same assay, conditions: qHTS FP screen hits, Table S2; read-out: IC50
row,SMILES,IC50 [µM]
1,CC(C)NC(=S)N/N=C1\C(=O)Nc2ccccc21.O=C(O)C(F)(F)F [NCGC00229535-01],12.6
2,COc1cc(Nc2c(C#N)cnc3cc(OCCCN4CCN(C)CC4)c(OC)cc23)c(Cl)cc1Cl [NCGC00241107-05],50.1

# Same assay, conditions: qHTS primary screen hits, Table S2; negative = inhibition
row,SMILES,Efficacy (%)
1,CCOC(=O)c1[nH]c2c(c1C)C(=S)CC(c1ccco1)C2.O=C(O)C(F)(F)F (stereo not drawn) [NCGC00238571-01],-69
2,CCOC(=O)c1ccc(O)c2ncc(N3CCC(C(=N)N)CC3)cc12.O=C(O)C(F)(F)F [NCGC00241051-01],-93
3,CC1(C)OB(c2ccc(O)c3ncc(N4CCNCC4)cc23)OC1(C)C.O=C(O)C(F)(F)F [NCGC00241053-01],-78

# Same assay, conditions: qHTS primary screen hits, Table S2; negative sign = inhibitory curve; several classes where COUNT > 1
row,SMILES,Curve Class
1,CCOC(=O)c1[nH]c2c(c1C)C(=S)CC(c1ccco1)C2.O=C(O)C(F)(F)F (stereo not drawn) [NCGC00238571-01],-2.2
2,CCOC(=O)c1ccc(O)c2ncc(N3CCC(C(=N)N)CC3)cc12.O=C(O)C(F)(F)F [NCGC00241051-01],-1.1
3,CC1(C)OB(c2ccc(O)c3ncc(N4CCNCC4)cc23)OC1(C)C.O=C(O)C(F)(F)F [NCGC00241053-01],-2.2

# Same assay, conditions: qHTS primary screen hits, Table S2; read-out: IC50
row,SMILES,IC50 [µM]
1,CCOC(=O)c1[nH]c2c(c1C)C(=S)CC(c1ccco1)C2.O=C(O)C(F)(F)F (stereo not drawn) [NCGC00238571-01],50.1
2,CC1(C)OB(c2ccc(O)c3ncc(N4CCNCC4)cc23)OC1(C)C.O=C(O)C(F)(F)F [NCGC00241053-01],50.1

# Target: T2, GST-CIB1 : F-scrambled peptide (Homo sapiens, UniProt Q99828)
# T2 construct: made in house; host or cells: BL-21 plus RIL cells (E. coli)
# T2 sequence (Q99828 1-191): T1 sequence (Q99828 1-191)
# Test: FP scrambled-peptide counter screen, 1536-well format
# Type: binding
# Conditions: counterscreen
row,SMILES,Efficacy (%) (counterscreen)
1,CCOC(=O)c1[nH]c2c(c1C)C(=S)CC(c1ccco1)C2.O=C(O)C(F)(F)F (stereo not drawn) [NCGC00238571-01],-30
2,CCOC(=O)c1ccc(O)c2ncc(N3CCC(C(=N)N)CC3)cc12.O=C(O)C(F)(F)F [NCGC00241051-01],-115
3,CC1(C)OB(c2ccc(O)c3ncc(N4CCNCC4)cc23)OC1(C)C.O=C(O)C(F)(F)F [NCGC00241053-01],-102
4,COc1cc(Nc2c(C#N)cnc3cc(OCCCN4CCN(C)CC4)c(OC)cc23)c(Cl)cc1Cl [NCGC00241107-05],-37

# Same assay, conditions: counterscreen, qHTS curve class; negative sign = inhibitory curve
row,SMILES,Curve Class (counterscreen)
1,CCOC(=O)c1[nH]c2c(c1C)C(=S)CC(c1ccco1)C2.O=C(O)C(F)(F)F (stereo not drawn) [NCGC00238571-01],-1.4
2,CCOC(=O)c1ccc(O)c2ncc(N3CCC(C(=N)N)CC3)cc12.O=C(O)C(F)(F)F [NCGC00241051-01],-1.3
3,CC1(C)OB(c2ccc(O)c3ncc(N4CCNCC4)cc23)OC1(C)C.O=C(O)C(F)(F)F [NCGC00241053-01],-1.1
4,COc1cc(Nc2c(C#N)cnc3cc(OCCCN4CCN(C)CC4)c(OC)cc23)c(Cl)cc1Cl [NCGC00241107-05],-1.4

# Same assay, conditions: counterscreen; read-out: IC50 [μM] (counterscreen)
row,SMILES,IC50 [µM]
1,CCOC(=O)c1[nH]c2c(c1C)C(=S)CC(c1ccco1)C2.O=C(O)C(F)(F)F (stereo not drawn) [NCGC00238571-01],7.1
2,CCOC(=O)c1ccc(O)c2ncc(N3CCC(C(=N)N)CC3)cc12.O=C(O)C(F)(F)F [NCGC00241051-01],7.1
3,CC1(C)OB(c2ccc(O)c3ncc(N4CCNCC4)cc23)OC1(C)C.O=C(O)C(F)(F)F [NCGC00241053-01],20
4,COc1cc(Nc2c(C#N)cnc3cc(OCCCN4CCN(C)CC4)c(OC)cc23)c(Cl)cc1Cl [NCGC00241107-05],20

# Same assay, conditions: scrambled-peptide counterscreen
row,SMILES,COUNTERSCREEN Efficacy (%)
1,CC(C)NC(=S)N/N=C1\C(=O)Nc2ccccc21.O=C(O)C(F)(F)F [NCGC00229535-01],-45

# Same assay, conditions: scrambled-peptide counterscreen, YES/NO call
row,SMILES,COUNTERSCREEN Confirm?
1,CC(C)NC(=S)N/N=C1\C(=O)Nc2ccccc21.O=C(O)C(F)(F)F [NCGC00229535-01],YES

# Same assay, conditions: scrambled-peptide counterscreen, qHTS curve class
row,SMILES,COUNTERSCREEN Curve Class
1,CC(C)NC(=S)N/N=C1\C(=O)Nc2ccccc21.O=C(O)C(F)(F)F [NCGC00229535-01],-1.2

# Same assay, conditions: scrambled-peptide counterscreen; read-out: COUNTERSCREEN IC50
row,SMILES,IC50 [µM]
1,CC(C)NC(=S)N/N=C1\C(=O)Nc2ccccc21.O=C(O)C(F)(F)F [NCGC00229535-01],11.2
